Test results reported in patent US20190270778A1, “Cyclic Peptides As C5a Receptor Antagonists” (priority 2016, published 2019).
Numbered stars: 1 amine (or outer) side, 2 acyl side, 3 side chain; on linkers, the order of the positions; unused ones are H or OH. Bridge positions count the residues as written; N and C are the ends. Square brackets hold non-standard residues; d marks the D form. Peptide text beside a SMILES is read from it. * marks the point of attachment. X2 = O=C([C@@H](C[C@H]1CC[C@@H](O)CC1)N[*:1])[*:2]; X1 = CN(CC(=O)O)[C@@H](Cc1ccccc1)C(=O)*; Hyp = O=C(O)[C@@H]1C[C@@H](O)CN1; Orn = NCCC[C@H](N)C(=O)O

Legend:
C5a receptor [1] = target: T1, C5a receptor (Homo sapiens, UniProt P21730); experiment: HWB oxidative burst assay (C5a-induced, luminol chemiluminescence); format: cell-based
T1 construct: endogenous in cells; host or cells: leukocytes/granulocytes in freshly drawn whole blood of healthy volunteers
T1 sequence (P21730 1-350): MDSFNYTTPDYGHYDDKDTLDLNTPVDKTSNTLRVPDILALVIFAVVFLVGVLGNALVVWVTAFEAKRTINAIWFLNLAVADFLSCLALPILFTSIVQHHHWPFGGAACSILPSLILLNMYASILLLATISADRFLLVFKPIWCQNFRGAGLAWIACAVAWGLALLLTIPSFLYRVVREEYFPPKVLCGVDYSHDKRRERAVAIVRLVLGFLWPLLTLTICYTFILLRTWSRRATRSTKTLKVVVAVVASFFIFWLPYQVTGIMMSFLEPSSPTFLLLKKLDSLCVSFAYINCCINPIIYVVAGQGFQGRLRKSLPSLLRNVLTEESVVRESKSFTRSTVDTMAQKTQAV
Description: Inhibition of oxidative burst activity was determined in HWB primed with TNF-α and stimulated with C5a. C5a-induced oxidative burst response (generation of reactive oxygen species) was then detected in the presence of luminol as a chemiluminescent signal.
On the day of assay, HWB was collected from a healthy, non-medicated volunteer into tubes containing 3.8% sodium citrate (final sodium citrate concentration in HWB is 0.38%) and stored in a 37° C. water bath until use (no longer than 60 minutes).
To start the assay, TNF-α was added to HWB to a final concentration of 1.0 nM and 68 μL of this HWB/TNF-α mix was transferred to each well of a 384-well white Optiplate (assay plate). 4.0 μL of various concentrations of test agent were then added to the assay plate and mixed twice gently by aspirating up and down. The assay plate was then placed on a thermoshaker (JITTERBUG-4) and incubated at 37° C. (without shaking). After 60 minutes, C5a (Complement Technology) prepared in luminol (Sigma) was added to the assay plate and mixed twice gently by aspirating up and down. The plate was then placed in a ViewLux 1430 Microplate Imager (Perkin Elmer). After 5 minutes, oxidative burst activity was determined with the ViewLux by measuring luminol-enhanced whole blood chemiluminescence. Final assay conditions were 1.5 mM HEPES pH 7.5, 0.015% BSA, 15% HBSS, 0.85 ng/mL TNFα, 1.0 mM Luminol, C5a 20 nM, 76.5% HWB, 0.15% DMSO and various concentrations of test agent.
The percent (%) effect at each concentration of test agent was then calculated based on and relative to the amount of signal that was produced by positive (i.e. full inhibition of C5a induced oxidative burst) and negative (i.e. completely uninhibited C5a induced oxidative burst) control wells contained within each assay plate. The concentration and % effect values for test agents were plotted and the concentration of test agent required for 50% effect (IC50) was determined with a four-parameter logistic dose response equation (BioBook; IDBS). Kb (nM) was then calculated (BioBook; IDBS) using the equation described by Leff and Dougal (TIPS 1993 14:110-112).

C5a receptor [2] = target: T1, C5a receptor; experiment: HWB CD11b expression assay (C5a-challenged granulocytes, flow cytometry); format: cell-based
Description: HWB was collected from healthy, non-medicated volunteers into BD Vacutainer® blood collection tubes with K2EDTA as an anticoagulant. HWB was aliquoted (85 μL/well) in 96-well, deep-well, V-bottom plates and incubated at 37° C. for 30 minutes. Test compounds (5 μL/well) were added to HWB and incubated at 37° C. for 30 minutes. Anti-human CD11b antibody conjugated with APC (BD Biosciences) was added to HWB (5 μL/well) and incubated at 37° C. for additional 30 minutes. HWB was then challenged with human C5a (final 1 nM) for 30 minutes at 37° C. Samples were treated with warm 1× Lyse/Fix buffer (BD Biosciences) to terminate activation and further incubated at 37° C. for 20 minutes to lyse red blood cells. Assay plates were centrifuged at 300×g for 5 minutes, supernatant was aspirated, and cells were washed once with PBS containing 0.5% FBS. Washed cells were resuspended in PBS containing 0.5% FBS and subjected to flow cytometric analysis using an LSRFortessa equipped with a HTS plate loader (BD Biosciences). The granulocyte population was gated for analysis of MF of CD11b staining using FACSDiva version 6.2 (BD Biosciences). Data from 11 compound concentrations (singlicate at each concentration) was normalized as a percentage of control based on the formula:
% of Control=100×(A−B)/(C−B)
where A is MF from wells containing test compound and C5a, B is MF from wells without C5a (background MF from unstimulated samples) and C is MF from wells containing only C5a (maximum MF). Inhibition curves and IC50 values (test compound concentrations which produce 50% inhibition) were determined using the Prism version 5 software (GraphPad). HWB was also stimulated with 11 different concentrations of C5a to construct a responsive curve and to obtain EC50 value (the concentration of C5a that gives half-maximal response) and curve slope using the Prism version 5 software. Kb (nM) was then calculated using the equation described by Leff and Dougal (TIPS 1993 14:110-112).

N=C(N)NCCC[C@@H]1NC(=O)[C@H](Cc2c[nH]c3ncccc23)NC(=O)[C@@H](C[C@H]2CC[C@@H](O)CC2)NC(=O)[C@@H]2C[C@@H](O)CN2C(=O)[C@@H](NC(=O)[C@H](Cc2ccccc2)NCC(=O)O)CCCNC1=O [Example 6, ((S)-1-(((3R,6S,9S,15S,19R,20aS)-6-((1H-pyrrolo[2,3-b]pyridin-3-yl)methyl)-9-(3-guanidinopropyl)-19-hydroxy-3-(((1s,4S)-4-hydroxycyclohexyl)methyl)-1,4,7,10,16-pentaoxoicosahydropyrrolo[1,2-a][1,4,7,10,13]pentaazacyclooctadecin-15-yl)amino)-1-oxo-3-phenylpropan-2-yl)glycine]
Kb (C5a receptor [1]): 68.1 nM
Kb (C5a receptor [2]): 460 nM

COc1ccc2c(C[C@@H]3NC(=O)[C@@H](C[C@H]4CC[C@@H](O)CC4)NC(=O)[C@@H]4C[C@@H](O)CN4C(=O)[C@@H](NC(=O)[C@H](Cc4ccccc4)NCC(=O)O)CCCNC(=O)[C@H](CCCNC(=N)N)NC3=O)c[nH]c2c1 [Example 15, ((S)-1-(((3R,6S,9S,15S,19R,20aS)-9-(3-guanidinopropyl)-19-hydroxy-3-(((1s,4S)-4-hydroxycyclohexyl)methyl)-6-((6-methoxy-1H-indol-3-yl)methyl)-1,4,7,10,16-pentaoxoicosahydropyrrolo[1,2-a][1,4,7,10,13]pentaazacyclooctadecin-15-yl)amino)-1-oxo-3-phenylpropan-2-yl)glycine]
Kb (C5a receptor [1]): 2.2 nM

CC(=O)N[C@H]1C[C@H]2C(=O)N[C@H](C[C@H]3CC[C@@H](O)CC3)C(=O)N[C@@H](Cc3c[nH]c4ccccc34)C(=O)N[C@@H](CCCNC(=N)N)C(=O)NCCC[C@H](NC(=O)[C@H](Cc3ccccc3)NCC(=O)O)C(=O)N2C1 [Example 10, ((S)-1-(((3R,6S,9S,15S,19S,20aS)-6-((1H-indol-3-yl)methyl)-19-acetamido-9-(3-guanidinopropyl)-3-(((1s,4S)-4-hydroxycyclohexyl)methyl)-1,4,7,10,16-pentaoxoicosahydropyrrolo[1,2-a][1,4,7,10,13]pentaazacyclooctadecin-15-yl)amino)-1-oxo-3-phenylpropan-2-yl)glycine]
Kb (C5a receptor [1]): 2.1 nM
Kb (C5a receptor [2]): 11.7 nM

CN(CC(=O)O)[C@@H](Cc1ccccc1)C(=O)N[C@H]1CCCNC(=O)[C@H](CCCNC(=N)N)NC(=O)[C@H](Cc2c[nH]c3ccccc23)NC(=O)[C@@H](C[C@H]2CC[C@@H](O)CC2)NC(=O)[C@@H]2C[C@@H](O)CN2C1=O [Example 11, N—((S)-1-(((3R,6S,9S,15S,19R,20aS)-6-((1H-indol-3-yl)methyl)-9-(3-guanidinopropyl)-19-hydroxy-3-(((1s,4S)-4-hydroxycyclohexyl)methyl)-1,4,7,10,16-pentaoxoicosahydropyrrolo[1,2-a][1,4,7,10,13]pentaazacyclooctadecin-15-yl)amino)-1-oxo-3-phenylpropan-2-yl)-N-methylglycine] (X1-[Orn][Hyp][X2]WR; lactam 1-C)
Kb (C5a receptor [1]): 1.2 nM

N=C(N)NCCC[C@@H]1NC(=O)[C@H](Cc2c[nH]c3ccccc23)NC(=O)[C@@H](C[C@H]2CC[C@@H](O)CC2)NC(=O)[C@@H]2C[C@@H](N)CN2C(=O)[C@@H](NC(=O)[C@H](Cc2ccccc2)NCC(=O)O)CCCNC1=O [Example 8, ((S)-1-(((3R,6S,9S,15S,19R,20aS)-6-((1H-indol-3-yl)methyl)-19-amino-9-(3-guanidinopropyl)-3-(((1s,4S)-4-hydroxycyclohexyl)methyl)-1,4,7,10,16-pentaoxoicosahydropyrrolo[1,2-a][1,4,7,10,13]pentaazacyclooctadecin-15-yl)amino)-1-oxo-3-phenylpropan-2-yl)glycine]
Kb (C5a receptor [1]): 4 nM
Kb (C5a receptor [2]): 19.8 nM

N=C(N)NCCC[C@@H]1NC(=O)[C@H](Cc2c[nH]c3ccccc23)NC(=O)[C@@H](C[C@H]2CC[C@@H](O)CC2)NC(=O)[C@@H]2C[C@@H](NCC(=O)O)CN2C(=O)[C@@H](NC(=O)[C@H](Cc2ccccc2)NCC(=O)O)CCCNC1=O [Example 14, ((31R,6S,9S,15S,19R,20aS)-6-((1H-indol-3-yl)methyl)-15-((S)-2-((carboxymethyl)amino)-3-phenylpropanamido)-9-(3-guanidinopropyl)-3-(((1s,4S)-4-hydroxycyclohexyl)methyl)-1,4,7,10,16-pentaoxoicosahydropyrrolo[1,2-a][1,4,7,10,13]pentaazacyclooctadecin-19-yl)glycine]
Kb (C5a receptor [1]): 1.7 nM

[2H]c1cc([2H])cc(C[C@H](NCC(=O)O)C(=O)N[C@H]2CCCNC(=O)[C@H](CCCNC(=N)N)NC(=O)[C@H](Cc3c[nH]c4ccccc34)NC(=O)[C@@H](C[C@H]3CC[C@@H](O)CC3)NC(=O)[C@@H]3C[C@@H](O)CN3C2=O)c1 [Example 13, ((S)-1-(((3R,6S,9S,15S,19R,20aS)-6-((1H-indol-3-yl)methyl)-9-(3-guanidinopropyl)-19-hydroxy-3-(((1s,4S)-4-hydroxycyclohexyl)methyl)-1,4,7,10,16-pentaoxoicosahydropyrrolo[1,2-a][1,4,7,10,13]pentaazacyclooctadecin-15-yl)amino)-1-oxo-3-(3,5-dideuterophenyl)propan-2-yl)glycine]
Kb (C5a receptor [1]): 1.3 nM

N=C(N)NCCC[C@@H]1NC(=O)[C@H](Cc2n[nH]c3ccccc23)NC(=O)[C@@H](C[C@H]2CC[C@@H](O)CC2)NC(=O)[C@@H]2C[C@@H](O)CN2C(=O)[C@@H](NC(=O)[C@H](Cc2ccccc2)NCC(=O)O)CCCNC1=O [Example 16, ((S)-1-(((31R,6S,9S,15S,19R,20aS)-6-((1H-indazol-3-yl)methyl)-9-(3-guanidinopropyl)-19-hydroxy-3-(((1s,4S)-4-hydroxycyclohexyl)methyl)-1,4,7,10,16-pentaoxoicosahydropyrrolo[1,2-a][1,4,7,10,13]pentaazacyclooctadecin-15-yl)amino)-1-oxo-3-phenylpropan-2-yl)glycine]
Kb (C5a receptor [1]): 6.5 nM
Kb (C5a receptor [2]): 75.2 nM

N=C(N)NCCC[C@@H]1NC(=O)[C@H](Cc2c[nH]c3ccccc23)NC(=O)[C@@H](C[C@H]2CC[C@@H](O)CC2)NC(=O)[C@@H]2C[C@H](NCC(=O)O)CN2C(=O)[C@@H](NC(=O)[C@H](Cc2ccccc2)NCC(=O)O)CCCNC1=O [Example 12, ((31R,6S,9S,15S,19S,20aS)-6-((1H-indol-3-yl)methyl)-15-((S)-2-((carboxymethyl)amino)-3-phenylpropanamido)-9-(3-guanidinopropyl)-3-(((1s,4S)-4-hydroxycyclohexyl)methyl)-1,4,7,10,16-pentaoxoicosahydropyrrolo[1,2-a][1,4,7,10,13]pentaazacyclooctadecin-19-yl)glycine]
Kb (C5a receptor [1]): 1.3 nM
Kb (C5a receptor [2]): 32.6 nM
